Legend:
[1] = test system: CDK2 gene in HCT-116 cells; test: qRT-PCR expression profile of the CDK2 gene in HCT-116 cells; type: cell-based, human; details: 24 h, relative to untreated cells (given as decreased x-fold)
Experimental: Second, the expression profiles of the CDK2 gene in HCT-116 cells treated with compounds 4d and 4k were determined. The results were compared with the positive control (cells treated with the well-known cytotoxic drug 5-fluorouracil) and the negative control (untreated cells).
Primers specific for the cyclin-dependent kinase-2 (CDK2) and caspase-3 genes were designed using primer blast (https://www.ncbi.nlm.nih.gov/tools/primer-blast/, accessed on 31 October 2021) or primer3 (https://primer3.ut.ee/, accessed on 31 October 2021) software. The selected genes covered the two main groups of the cyclin-dependent kinase-2 (CDK2) gene and the caspase-3 gene. Primers were used in RT-qPCR analysis to amplify fragments of 100–200 bp in length (Table 7).
Total RNA was extracted from each cell culture flask using the RNeasy extraction kit (RNeasy micro kit, cat. no. 74004). Up to 1 × 10^6 cells, depending on the cell line, were disrupted in buffer RLT and homogenized and disrupted. Ethanol was then added to the lysate, creating conditions that promote the selective binding of RNA to the RNeasy membrane. […] The amount of extracted RNA was quantified by estimating the absorbance at 260 nm. The purity of the RNA was checked by measuring the ratio of the absorbance at 260 and 280 nm, where a ratio ranging from 1.8 to 2.0 was taken to be pure. […]
(§1) Quantitative real-time PCR was carried out with the Thermal Cycler Rotorgene Real-Time System II (Rotorgene, South Korea) with the SYBR kit. […]
The relative expression levels through the average cycle threshold (CT) were successfully detected. Average CT values were calculated from the triplicate experiment conducted for each gene; the CT value was detected by subtracting the average CT value of genes from the CT value of actin and GAPDH genes. The relative expression levels of the target genes were calculated using the ΔΔ Ct method and the reference genes GAPDH for the cancer cell line. Finally, a fold change equation […] was used to estimate relative expression levels, while the standard deviation was calculated from the replicated experimental data.

[2] = test system: caspase-3 gene in HCT-116 cells; test: qRT-PCR expression profile of the caspase-3 gene in HCT-116 cells; type: cell-based, human; design: dose or concentration left out as unconfirmed; details: 24 h, as compared to the negative control
Text: Normally, apoptosis, or programmed cell death, is considered as a safeguard mechanism for managing stress and maintaining tissue homeostasis. It proceeds through a series of well-ordered biochemical cascades of events, which are regulated by a network of proteins. However, due to genetic and epigenetic mutations, deregulation of these proteins occurs, which results in evasion of apoptosis. This oncogenic transformation is a hallmark of human cancer, and it contributes to other tumorigenic events, including uncontrolled growth, accumulation of further genetic mutations, tumor angiogenesis and metastasis and chemotherapeutic resistance. Therefore, reinitiating selective cancer cell death is a fundamental goal in anticancer drug development. Research in cancer biology has provided fundamental insights into the apoptotic pathways and their deregulation in colon cancer. Moreover, it has identified the molecular targets for reinitiating selective tumor cell death, including antiapoptotic Bcl-2 family proteins, apoptosis inhibitors and activators of the TRAIL death receptor signaling pathway, as well as other apoptotic markers, such as caspases. Among the caspases, which play critical roles in apoptosis, are the initiators, including caspases-8 or 9, and the effectors, including caspase-3 and caspase-7. […] Thus, the real-time quantitative PCR analyses of caspase-3-gene levels following treatment with compounds 4d and 4K at a concentration […] for 24 h, were performed to investigate their potential as proapoptotic agents. […]
Total RNA was extracted from each cell culture flask using the RNeasy extraction kit (RNeasy micro kit, cat. no. 74004). […] The amount of extracted RNA was quantified by estimating the absorbance at 260 nm. The purity of the RNA was checked by measuring the ratio of the absorbance at 260 and 280 nm, where a ratio ranging from 1.8 to 2.0 was taken to be pure. […]
as §1

## O=c1[nH]cc(F)c(=O)[nH]1 [5-FU, 5-fluorouracil, reference compound]
[1]
  CDK2 transcript level, fold: 0.29 fold
[2]
  caspase-3 gene transcription level, fold increase: 7.31 fold

Source: paper PMC9317316, “Synthesis and Evaluation of Some New 4H-Pyran Derivatives as Antioxidant, Antibacterial and Anti-HCT-116 Cells of CRC, with Molecular Docking, Antiproliferative, Apoptotic and ADME Investigations” (Pharmaceuticals, 2022)
